The values that follow are results of earlier work, collected in patent US11154491B2, “Use of Undaria extract to reduce signs of skin aging” (Kimberly-Clark Worldwide, Inc., priority 2014, dated 2021).

The series deals with 3T3-L1 cells. As to conditions: literature.

Turning to Fucoidan, the adipogenesis result is recorded as “inhibit adipogenesis”.
